In ChEMBL document CHEMBL1149522, “Synthesis of 3H-spiro[benzofuran-2,1'-cyclohexane] derivatives from naturally occurring filifolinol and their classical complement pathway inhibitory activity” (Bioorg Med Chem Lett, 2006):
Several values for one entry are separate records, joined by “and”; a condition that tells them apart may be missing. Identical values can stand only once.

System: RBCs
Assay: Inhibition of complement-induced hemolysis in sensitized sheep erythrocytes at 253 ug/ml
Format: functional
Conditions: Ovis aries, Erythrocyte

SMILES | inhibition at 253 µg/mL [%]
CC(=O)c1cc2c(cc1O)C[C@@]1(O2)[C@@H](C)CC[C@@H](O)C1(C)C | 17

System: RBCs
Assay: Inhibition of complement-induced hemolysis in sensitized sheep erythrocytes
Format: functional, cell-based
Conditions: Ovis aries, Erythrocyte

SMILES | IC50
C[C@H]1CC[C@@H](O)C(C)(C)[C@@]12Cc1cc(C(=O)[O-])cc(C#N)c1O2.[Na+] | 1.32 mM and 415 µg/mL
C[C@H]1CC[C@@H](O)C(C)(C)[C@@]12Cc1cc(O)ccc1O2 | 455 µM and 260 µg/mL
C[C@@H]1CCC2C(C)(C)[C@H](O)[C@H](O)C[C@]2(C)[C@@]12Cc1c(O)cc(C(=O)[O-])c(C=O)c1O2.[Na+] (stereo partly specified) | 570 µM and 238 µg/mL
C[C@H]1CC[C@@H](O)C(C)(C)[C@@]12Cc1cc(C(=O)[O-])cc(Br)c1O2.[Na+] | 950 µM and 350 µg/mL
CC(=O)c1c(O)ccc2c1C[C@@]1(O2)[C@@H](C)CC[C@@H](O)C1(C)C | 1.07 mM and 320 µg/mL
COc1ccc(C(=O)[O-])c2c1CC1(CCCCC1)O2.[Na+] | 1.3 mM and 341 µg/mL
COc1cc(C(=O)[O-])c(C=O)c2c1CC1(CCCCC1)O2.[Na+] | 160 µM and 44 µg/mL
COc1cc(C(=O)[O-])cc2c1CC1(CCCCC1)O2.[Na+] | 820 µM and 214 µg/mL
C[C@H]1CC[C@@H](O)C(C)(C)[C@@]12Cc1cc(C(=O)[O-])ccc1O2.[Na+] | 2 mM and 580 µg/mL
C[C@]1(O)CC[C@@H]([C@]2(C)Cc3c(O)ccc(C(=O)[O-])c3O2)C[C@H]1O.[Na+] | 1.6 mM and 515 µg/mL
